Measurements taken from PubChem BioAssay (NCI).
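All cell lines were grown in 96-well plates and treated with compound for 48 hours. Here, GI50 denotes the concentration required for 50% inhibition of growth. TGI denotes the concentration required for complete inhibition of growth.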 Where a SMILES comes first, the peptide text is derived from it. The star is where a group is joined. Boc = CC(C)(C)OC(=O)*; Bz = O=C(c1ccccc1)*

Experiments:
Assay in all cases: NCI-60 cell line screen, 48 h
[1] = tested on: A498 renal
[2] = tested on: UACC-62 melanoma
[3] = tested on: NCI-H23 lung
[4] = tested on: CAKI-1 renal
[5] = tested on: HS 578T breast
[6] = tested on: SW-620 colon
[7] = tested on: SF-539 CNS
[8] = tested on: BT-549 breast
[9] = tested on: RXF 393 renal
[10] = tested on: KM12 colon

| SMILES | TGI [1] [µM] | TGI [2] [µM] | TGI [3] [µM] | TGI [4] [µM] | TGI [5] [µM] | TGI [6] [µM] | TGI [7] [µM] | TGI [8] [µM] | TGI [9] [µM] | TGI [10] [µM] | GI50 [1] [µM] | GI50 [2] [µM] | GI50 [3] [µM] | GI50 [4] [µM] | GI50 [5] [µM] | GI50 [6] [µM] | GI50 [7] [µM] | GI50 [8] [µM] | GI50 [9] [µM] | GI50 [10] [µM] |
| --- | --- | --- | --- | --- | --- | --- | --- | --- | --- | --- | --- | --- | --- | --- | --- | --- | --- | --- | --- | --- |
| CC1=NCCN=C(C)C1N=Nc1ccc2nc(C)[nH]c2c1 | 18 | 31.5 | 44.2 | 36 | 57.5 | 33.4 | 42.5 | 28.2 | 40.1 | 30.9 |  |  |  |  |  |  |  |  |  |  |
| Cc1cccc(C(C)C)c1NC(=O)C(=O)CC(=O)c1sc(Nc2ccccc2Cl)nc1C | > 100 | > 100 | > 100 | > 100 | > 100 | > 100 | 24.7 | 93.2 | > 100 | > 100 |  |  |  |  |  |  |  |  |  |  |
| O=c1cc(NCCCCCO)[nH]c(=O)[nH]1 | > 100 | > 100 | > 100 | > 100 | > 100 | > 100 | > 100 | > 100 | > 100 | > 100 |  |  |  |  |  |  |  |  |  |  |
| CCOC(=O)C1(C(N)=O)C(=O)c2ccncc2C1=O (stereo not given) | > 100 | > 100 | > 100 | > 100 | > 100 | > 100 | > 100 | > 100 | > 100 | > 100 |  |  |  |  |  |  |  |  |  |  |
| C/C(CC/C(C)=N/O)=N\O | > 100 | > 100 | > 100 | > 100 | > 100 | > 100 | > 100 | > 100 | > 100 | > 100 |  |  |  |  |  |  |  |  |  |  |
| CN(C)c1ccc(/C=c2/c3ccccc3n3c2c2ccccc2[n+]3C)cc1 | 5.14 | 0.998 | 3.45 | 8.53 | 4.42 | 1.61 | 3.12 | 1.03 | 4.47 | 10.7 |  |  |  |  |  |  |  |  |  |  |
| O=C1/C(=C/c2ccccc2)CCCC1CN1CCCCC1 (stereo not given) | 30.4 | 19.7 | 16.7 | 3.2 | 16.9 | 2.64 | 11.7 | 8.91 | 3.76 | 2.78 |  |  |  |  |  |  |  |  |  |  |
| COc1ccccc1/C=C/C1=NN(c2cccc(S(=O)(=O)O)c2)C2(C1)SCC(=O)N2c1nc2ccccc2s1 (stereo not given) | > 100 | > 100 | > 100 | > 100 | > 100 | > 100 | > 100 | > 100 | > 100 | > 100 |  |  |  |  |  |  |  |  |  |  |
| Cc1c(NC(=S)NN)c(=O)n(-c2ccccc2)n1C | > 100 | > 100 |  | > 100 | > 100 | > 100 | > 100 | > 100 | > 100 | > 100 |  |  |  |  |  |  |  |  |  |  |
| CC(C)(C)OC(=O)NCCCCC(N)C(N)=O (stereo not given) | > 100 | > 100 | > 100 | > 100 | > 100 | > 100 | > 100 | > 100 | > 100 | > 100 |  |  |  |  |  |  |  |  |  |  |
| NCCSc1nc2ccccc2s1 | 90.7 | > 100 | > 100 | > 100 | 76.4 | > 100 | 37.6 | 93.8 | 77.9 | > 100 |  |  |  |  |  |  |  |  |  |  |
| CCCCCCCC1C(C)c2c([nH]c3ccccc23)C2C(=O)N(c3ccc(OC)cc3)C(=O)C21 (stereo not given) | 5.47 | > 10 | 6.99 | > 8.37 | 4.88 | > 8.94 | > 7.09 | 6.56 | 8.14 | > 10 |  |  |  |  |  |  |  |  |  |  |
| Cc1c2c(c(C)n1-c1ccccc1)C(=O)N(CCCCN1CCN(c3ccccc3)CC1)C2=O | 69 | 36.8 | 48.5 | > 100 | > 100 | > 100 | 26.5 | 49.3 | > 100 | > 100 |  |  |  |  |  |  |  |  |  |  |
| COc1cc(-c2cn(S(=O)(=O)c3ccc(C)cc3)c3ccccc23)nc(-c2cn(S(=O)(=O)c3ccc(C)cc3)c3ccccc23)n1 | > 100 | > 100 | 0.927 | > 100 | > 100 | > 56.9 | 0.592 | > 100 | > 100 | 8.44 |  |  |  |  |  |  |  |  |  |  |
| CC(=O)OC1=c2ccccc2=C(O)C2C1C=NN2C(C)=O (stereo not given) | > 100 | > 100 | > 100 | > 100 | > 100 | > 100 | > 100 | > 100 | > 100 | > 100 |  |  |  |  |  |  |  |  |  |  |
| NC(Cc1ccc(S(=O)(=O)O)cc1)C(=O)NC(CCCCNC(=O)NCCCCC(NC(=O)C(N)Cc1ccc(S(=O)(=O)O)cc1)C(=O)NC(Cc1ccc(S(=O)(=O)O)cc1)C(=O)O)C(=O)NC(Cc1ccc(S(=O)(=O)O)cc1)C(=O)O (stereo not given) | > 100 | > 100 | > 100 | > 100 | > 100 | > 100 | > 100 | > 100 | > 100 | > 100 |  |  |  |  |  |  |  |  |  |  |
| COc1cc2c[n+](C)c3c4cc(OC)c(OC)cc4c(OC)cc3c2cc1OC | > 100 | > 100 | 36.8 | > 100 | 12.6 | > 100 | > 100 | 57 | > 100 | > 67.1 |  |  |  |  |  |  |  |  |  |  |

| SMILES | TGI [1] [µM] | TGI [2] [µM] | TGI [3] [µM] | TGI [4] [µM] | TGI [5] [µM] | TGI [6] [µM] | TGI [7] [µM] | TGI [8] [µM] | TGI [9] [µM] | TGI [10] [µM] | GI50 [1] [µM] | GI50 [2] [µM] | GI50 [3] [µM] | GI50 [4] [µM] | GI50 [5] [µM] | GI50 [6] [µM] | GI50 [7] [µM] | GI50 [8] [µM] | GI50 [9] [µM] | GI50 [10] [µM] |
| --- | --- | --- | --- | --- | --- | --- | --- | --- | --- | --- | --- | --- | --- | --- | --- | --- | --- | --- | --- | --- |
| COc1ccc(Oc2cccc(/C=C3/C(=O)Nc4ccccc43)c2)cc1 | 25.4 |  | 16.2 | 20.9 | 45.8 | 23.2 | 33.1 | 29.5 | 15.7 | 18 |  |  |  |  |  |  |  |  |  |  |
| CCC(C#N)(c1ccccc1)N(CCc1ccccc1)C(=O)c1ccccc1 (stereo not given) | 79.6 | > 100 | > 100 | > 100 | 69.6 | > 100 | 34.8 | > 100 | 55.3 | > 100 |  |  |  |  |  |  |  |  |  |  |
| Cc1cc(N(CCC#N)CCC#N)ccc1/C(N=Nc1ccc(Cl)cc1)=N\NC(=O)c1cc(Cl)ccc1O | > 100 | > 100 | > 100 | > 100 | 56.2 |  | 73.6 | > 100 | 74.5 | > 100 |  |  |  |  |  |  |  |  |  |  |
| CC(NC(=O)C(Cc1ccc(OC(=O)c2ccccc2)cc1)NC(=O)OC(C)(C)C)C(=O)NC(Cc1ccccc1)C(=O)NCC(N)=O (stereo not given) (Boc-Y(Bz)AFG-NH2; configuration not given here) | 41.9 | 37.3 | 45.9 | > 100 | 47 | > 100 | 68.3 | 37.4 | 46.4 | > 100 |  |  |  |  |  |  |  |  |  |  |
| Cc1c(C#N)c2nnn(-c3ccc(Cl)cc3)c(=O)n2c1-c1ccccc1 | 3.92 | 18.5 | 19.8 | > 52.3 | > 56.3 | 31.4 | 0.6 | 24.9 | 3.76 | 11.6 |  |  |  |  |  |  |  |  |  |  |
| NNC(=O)CSc1nc2ccc(I)cc2c(=O)n1Cc1ccccc1 | 33.2 | 40.4 | 74.7 | 40.2 | 52.5 | > 100 | 52 | 42.6 | 26.5 | 58.7 |  |  |  |  |  |  |  |  |  |  |
| Brc1ccc2[nH]cc(-c3csc(-c4ccccn4)n3)c2c1 | 12.4 |  | > 100 | > 94.9 | > 100 | 98.6 | > 100 | > 100 | 18.7 | > 100 |  |  |  |  |  |  |  |  |  |  |
| CC(=N\N)/C(C)=N/N=C(C)/C(C)=N/N=C(C)/C(C)=N/N=C(C)/C(C)=N/N | > 100 |  | > 100 | > 100 | > 100 | > 100 | > 100 | > 100 | > 100 | > 100 |  |  |  |  |  |  |  |  |  |  |
| O=C(CN1CCN(Cc2ccccc2)CC1)c1ccc2[nH]c(=O)oc2c1 | > 100 | > 100 | > 100 | > 100 | > 100 | > 100 | > 100 | > 100 | > 100 | > 100 |  |  |  |  |  |  |  |  |  |  |
| Nc1cc2c3c(c1)Oc1cc(N)cc4c1C3c1c(cc(N)cc1O4)O2 | > 100 | > 69.6 | > 66.5 | 36.1 | > 100 | > 100 | 46.2 | 51.3 | 29 | > 84.2 |  |  |  |  |  |  |  |  |  |  |
| NCC(=O)NC1(c2cc3ccccc3s2)CCCCC1 | > 100 | 44.5 | > 100 | > 100 | 99.5 | > 100 | > 100 | > 100 | > 100 | > 100 |  |  |  |  |  |  |  |  |  |  |
| Cc1ccc2c3c1O[C@H]1c4[nH]c5ccccc5c4C[C@@]4(O)[C@@H](C2)N(C)CC[C@]314 | 32.3 | 31.1 | 40.4 | 34.4 | 21.5 | 30.1 | 31.9 | 31.8 | 22.7 | 33.8 |  |  |  |  |  |  |  |  |  |  |
| O=C(Nc1cccc(-n2ccc3c(NC(=O)c4ccccc4)nccc32)c1)c1ccc(N2CCOCC2)c(C(F)(F)F)c1 | 4.72 | 22.5 | > 90.1 | 14.8 | 98.6 | > 100 | 3.42 | > 67.7 | 2.69 | 1.36 | 0.0357 | 0.0414 | 0.0679 | 0.0462 | 0.272 | 0.0412 | 0.0358 | 0.183 | 0.0333 | 0.0364 |
| CCOC(=O)CN1C(=O)c2c(c(C)n(-c3ccccc3)c2C)C1=O | > 100 | > 100 | > 100 | > 100 | > 100 | > 100 | > 100 | > 100 | > 100 | > 100 |  |  |  |  |  |  |  |  |  |  |
| N#Cc1c(N2CCCC2)nsc1NCc1ccccc1 | > 100 | > 100 | > 100 | > 100 | > 100 | > 100 | > 100 | > 100 | > 100 | > 100 |  |  |  |  |  |  |  |  |  |  |
| C=CCN1CCC(OC(=O)C(O)(C#CC)C2CCCC2)CC1 (stereo not given) | > 100 | > 100 | > 100 | > 100 | > 100 | > 100 | > 100 | > 100 | > 100 | > 100 |  |  |  |  |  |  |  |  |  |  |
| COc1cc(C2SC(N)=Nc3c2c(C)nn3C(=O)c2ccccc2O)cc(OC)c1OC (stereo not given) | > 10 | 8.19 | > 10 | > 10 | 8.53 | > 10 | > 10 | > 10 | > 10 | > 10 |  |  |  |  |  |  |  |  |  |  |
